The source of these data is patent US20190292155A1, “THERAPEUTIC INHIBITORY COMPOUNDS” (LifeSci Pharmaceuticals, Inc., priority 2016, published 2019).

Test [1] has as its system alternative pathway (AP) hemolytic activity. As to the kind of experiment: AP hemolysis inhibition assay. Format: cell-based. The settings on record: Normal Human Serum, chicken or rabbit erythrocytes. The method, then:
The ability of the compounds disclosed herein to inhibit alternative pathway (AP) hemolytic activity was determined. […] In 100 μL reaction system, 1300 to […] final concentration of Normal Human Serum (CompTech) was incubated with compound for 15 min at 37° C. Then 2×10^6 cells/well of chicken or rabbit erythrocytes in assay buffer were added and incubated for an additional 60 min at 37° C. Positive control (100% lysis) consists of serum and RBC, and negative control (0% lysis) consists of assay buffer and RBC only. Samples were centrifuged at 2000 g for 5 min, and supernatants collected. […] Percentage lysis in each sample is calculated relative to positive control (100% lysis).

Test [2] deals with T1, human complement factor D (Homo sapiens, UniProt P00746).
T1 construct: purchased R&D Systems 1824-SE
As to the kind of experiment: In vitro enzyme inhibition of human complement factor D (Z-Lys-SBzl/DTNB, A405). Format: biochemical. The gist of the method:
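Buffer 50 mM Tris/HCl pH 7.5, 1 M NaCl, 0.5% final DMSO; compounds pre-incubated with enzyme 5 min at room temperature, then Z-Lys-SBzl with DTNB added (each diluted to 200 μM before addition).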

Where [3] appears, read: biochemical assay, substrate Z-Lys-SBzl, read-out: CFD IC50.

Read-outs that look alike come from different tables or passages of the source.

T1 sequence (P00746 26-253): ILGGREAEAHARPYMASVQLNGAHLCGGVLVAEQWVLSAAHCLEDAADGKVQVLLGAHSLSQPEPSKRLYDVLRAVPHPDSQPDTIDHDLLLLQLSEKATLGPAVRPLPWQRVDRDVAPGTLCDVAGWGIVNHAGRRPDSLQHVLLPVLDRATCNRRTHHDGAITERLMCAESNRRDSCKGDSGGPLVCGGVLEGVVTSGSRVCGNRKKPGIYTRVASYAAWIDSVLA

In turn, `NC(=O)n1nc(CC(=O)N(CC(=O)NCc2cccc(Cl)c2F)C2CC2)c2ccccc21` [Example 8, 3-(2-((2-((3-chloro-2-fluorobenzyl)amino)-2-oxoethyl)(cyclopropyl)amino)-2-oxoethyl)-1H-indazole-1-carboxamide] showed an EC50 in test [1] of 100 to 1000 nM. Moreover, the IC50 in test [2] (setting [3]) was under 100 nM. As to `CC(C)N(CC(=O)Nc1cccc(Cl)n1)C(=O)Cn1nc(C(N)=O)c2ccccc21` [Example 12, 1-(2-((2-((6-chloropyridin-2-yl)amino)-2-oxoethyl)(isopropyl)amino)-2-oxoethyl)-1H-indazole-3-carboxamide], the EC50 in test [1] fell in the range of 100 to 1000 nM. The compound further registered an IC50 in test [2] of 100 to 1000 nM. Regarding `NC(=O)c1nn(CC(=O)N(CC(=O)Nc2cccc(Cl)n2)C2CC2)c2ccccc12` [Example 16, 1-(2-((2-((6-chloropyridin-2-yl)amino)-2-oxoethyl)(cyclopropyl)amino)-2-oxoethyl)-1H-indazole-3-carboxamide], the EC50 in test [1] lay in the range of 100 to 1000 nM. Moreover, the IC50 in test [2] was 100 to 1000 nM.

`NC(=O)n1nc(CC(=O)N(CC(=O)Nc2cccc(Cl)n2)C2CCC2)c2ccccc21` [Example 20, 3-(2-((2-((6-chloropyridin-2-yl)amino)-2-oxoethyl)(cyclobutyl)amino)-2-oxoethyl)-1H-indazole-1-carboxamide] gave a 50% effective concentration (EC50) in test [1] of 100 to 1000 nM. The IC50 in test [2] (setting [3]) was 100 to 1000 nM.

Take `NC(=O)c1nn(CC(=O)N(CC(=O)NCc2cccc(Cl)c2F)C2CC2)c2cnccc12` [Example 40, 1-(2-((2-((3-chloro-2-fluorobenzyl)amino)-2-oxoethyl)(cyclopropyl)amino)-2-oxoethyl)-1H-pyrazolo[3,4-c]pyridine-3-carboxamide]: the EC50 in test [1] fell in the range of 100 to 1000 nM. Moreover, the IC50 in test [2] (setting [3]) was under 100 nM.

With `CC(=O)c1nn(CC(=O)N(CC(=O)NCc2cccc(Cl)c2F)C2CC2)c2ccccc12` [Example 47, 2-(3-acetyl-1H-indazol-1-yl)-N-(2-((3-chloro-2-fluorobenzyl)amino)-2-oxoethyl)-N-cyclopropylacetamide], in test [1], the EC50 fell in the range of 100 to 1000 nM. In test [2] (setting [3]), the IC50 is under 100 nM. Take `CC(C)N(CC(=O)NCc1cccc(Cl)c1F)C(=O)Nc1cn(C(N)=O)c2ccccc12` [Example 50, 3-(3-(2-((3-chloro-2-fluorobenzyl)amino)-2-oxoethyl)-3-isopropylureido)-1H-indole-1-carboxamide]: the EC50 in test [1] was 1000 to 10000 nM. In test [2] (setting [3]), the IC50 was in the range of 100 to 1000 nM. On the same counts, the results for `NC(=O)c1nc(NC(=O)N(CC(=O)NCc2cccc(Cl)c2F)C2CC2)c2ccccn12` [Example 53, 1-(3-(2-((3-chloro-2-fluorobenzyl)amino)-2-oxoethyl)-3-cyclopropylureido)imidazo[1,5-a]pyridine-3-carboxamide] are 100 to 1000 nM and 100 to 1000 nM.

For the compound `NC(=O)c1nn(CC(=O)N(CC(=O)NCc2cncc(Cl)c2)C2CC2)c2ccccc12` [Example 130, 1-(2-((2-(((5-chloropyridin-3-yl)methyl)amino)-2-oxoethyl)(cyclopropyl)amino)-2-oxoethyl)-1H-indazole-3-carboxamide], the IC50 in test [2] (setting [3]) lay in the range of 1000 to 10000 nM. Same read-out and setting: the same measure for `NC(=O)c1nn(CC(=O)N(CC(=O)NCc2cccc(Cl)c2C2CC2)C2CC2)c2ccccc12` [Example 131, 1-(2-((2-((3-chloro-2-cyclopropylbenzyl)amino)-2-oxoethyl)(cyclopropyl)amino)-2-oxoethyl)-1H-indazole-3-carboxamide]: over 10000 nM; for `NC(=O)c1nn(CC(=O)N(CC(=O)NCc2cccc(F)c2F)C2CC2)c2ccccc12` [Example 132, 1-(2-(cyclopropyl(2-((2,3-difluorobenzyl)amino)-2-oxoethyl)amino)-2-oxoethyl)-1H-indazole-3-carboxamide]: 100 to 1000 nM. The same measure, in the same setting: for `N#Cc1cc(Cl)cc(CNC(=O)CN(C(=O)Cn2nc(C(N)=O)c3ccccc32)C2CC2)c1` [Example 133, 1-(2-((2-((3-chloro-5-cyanobenzyl)amino)-2-oxoethyl)(cyclopropyl)amino)-2-oxoethyl)-1H-indazole-3-carboxamide] the value was 1000 to 10000 nM; for `Cc1c(Cl)cccc1CNC(=O)CN(C(=O)Cn1nc(C(N)=O)c2ccccc21)C1CC1` [Example 134, 1-(2-((2-((3-chloro-2-methylbenzyl)amino)-2-oxoethyl)(cyclopropyl)amino)-2-oxoethyl)-1H-indazole-3-carboxamide], 1000 to 10000 nM; for `NC(=O)c1nn(CC(=O)N(CC(=O)NCc2cccc(Cl)c2C(F)(F)F)C2CC2)c2ccccc12` [Example 135, 1-(2-((2-((3-chloro-2-(trifluoromethyl)benzyl)amino)-2-oxoethyl)(cyclopropyl)amino)-2-oxoethyl)-1H-indazole-3-carboxamide], 1000 to 10000 nM. On the same count and under the same terms, the same measure for `NC(=O)c1nn(CC(=O)N(CC(=O)NCc2cccc(C(F)(F)F)c2F)C2CC2)c2ccccc12` [Example 136, 1-(2-(cyclopropyl(2-((2-fluoro-3-(trifluoromethyl)benzyl)amino)-2-oxoethyl)amino)-2-oxoethyl)-1H-indazole-3-carboxamide]: 1000 to 10000 nM; for `CC(=O)c1nc(CC(=O)N(CC(=O)NCc2cccc(Cl)c2F)C2CC2)c2ccccn12` [Example 137, 2-(3-acetylimidazo[1,5-a]pyridin-1-yl)-N-(2-((3-chloro-2-fluorobenzyl)amino)-2-oxoethyl)-N-cyclopropylacetamide]: 1000 to 10000 nM. Consider `NC(=O)c1nc(CC(=O)N(CC(=O)NCc2cccc(Cl)c2F)C2CC2)c2ccccn12` [Example 138, 1-(2-((2-((3-chloro-2-fluorobenzyl)amino)-2-oxoethyl)(cyclopropyl)amino)-2-oxoethyl)imidazo[1,5-a]pyridine-3-carboxamide], for which the IC50 in test [2] (setting [3]) was 100 to 1000 nM. Still for that read-out and setting: for `NC(=O)c1nc(NC(=O)N(CC(=O)NCc2cccc(Cl)c2F)C2CC2)n2ccccc12` [Example 140, 3-(3-(2-((3-chloro-2-fluorobenzyl)amino)-2-oxoethyl)-3-cyclopropylureido)imidazo[1,5-a]pyridine-1-carboxamide] the value was 100 to 1000 nM.

Take `CC(=O)c1nc(NC(=O)N(CC(=O)NCc2cccc(Cl)c2F)C2CC2)c2ccccn12` [Example 141, 2-(3-(3-acetylimidazo[1,5-a]pyridin-1-yl)-1-cyclopropylureido)-N-(3-chloro-2-fluorobenzyl)acetamide]: the IC50 in test [2] (setting [3]) is 100 to 1000 nM.

For orientation: EC50 means the concentration needed to bring the measured effect to its halfway point. A low value points to greater potency. Broadly, the IC50 is the point on the concentration scale where inhibition reaches its midpoint.
